Measurements as given in patent US20260125346A1, “Isoquinolinone Derivatives and 4H-Quinolizinone Derivatives and Pharmaceutical Compositions Thereof for the Treatment of Disease” (BeOne Medicines I GmbH, priority 2023, published 2026).
pIC50: −log10 of the molar value.

Tests used:
[1] = molecular target: PI3Kα (p110/p85) kinase (wild type, "WT") (Homo sapiens, UniProt P42336); test: PI3Kα (p110/p85) kinase ADP-Glo Assay; type: biochemical; conditions: 25 uM ATP
Summary of the method: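 Wild-type PI3Kα p110/p85 preincubated 30 min at RT with PI(4,5)P2:PS substrate ([…]) and compound ([…]) in HEPES pH7.5 buffer with MgCl2, DTT and BSA; reaction started with 25 µM ATP for 120 min at RT. ADP measured by ADP-Glo luminescence; IC50 from four-parameter logistic fit.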

[2] = test system: PI3Kα H1047R mutated cell line T-47D; test: Phospho-AKT (Ser473) Inhibition Assay (HTRF), T-47D; type: cell-based; conditions: for pIC50: Homo sapiens, T47D, T-47D, 1 hour treatment, read-out: p-AKT Inhibition assay (S473) IC50 T-47D; for Selectivity: SK-BR-3/T-47D (p-AKT): p-AKT (S473) IC50 ratio
Summary of the method: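 Cells seeded overnight in insulin-supplemented MEM, then treated 1 h with 11-point 1:3 compound dilutions (10 μM to 0.1 nM final, 0.1% DMSO). Lysates assayed for phospho-AKT Ser473 by HTRF; IC50 from 4-parameter logistic fit, normalised to DMSO (max) and 10 μM GDC0077 (min).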

PI3Kα (p110/p85) kinase (wild type, "WT"), sequence (P42336 whole entry): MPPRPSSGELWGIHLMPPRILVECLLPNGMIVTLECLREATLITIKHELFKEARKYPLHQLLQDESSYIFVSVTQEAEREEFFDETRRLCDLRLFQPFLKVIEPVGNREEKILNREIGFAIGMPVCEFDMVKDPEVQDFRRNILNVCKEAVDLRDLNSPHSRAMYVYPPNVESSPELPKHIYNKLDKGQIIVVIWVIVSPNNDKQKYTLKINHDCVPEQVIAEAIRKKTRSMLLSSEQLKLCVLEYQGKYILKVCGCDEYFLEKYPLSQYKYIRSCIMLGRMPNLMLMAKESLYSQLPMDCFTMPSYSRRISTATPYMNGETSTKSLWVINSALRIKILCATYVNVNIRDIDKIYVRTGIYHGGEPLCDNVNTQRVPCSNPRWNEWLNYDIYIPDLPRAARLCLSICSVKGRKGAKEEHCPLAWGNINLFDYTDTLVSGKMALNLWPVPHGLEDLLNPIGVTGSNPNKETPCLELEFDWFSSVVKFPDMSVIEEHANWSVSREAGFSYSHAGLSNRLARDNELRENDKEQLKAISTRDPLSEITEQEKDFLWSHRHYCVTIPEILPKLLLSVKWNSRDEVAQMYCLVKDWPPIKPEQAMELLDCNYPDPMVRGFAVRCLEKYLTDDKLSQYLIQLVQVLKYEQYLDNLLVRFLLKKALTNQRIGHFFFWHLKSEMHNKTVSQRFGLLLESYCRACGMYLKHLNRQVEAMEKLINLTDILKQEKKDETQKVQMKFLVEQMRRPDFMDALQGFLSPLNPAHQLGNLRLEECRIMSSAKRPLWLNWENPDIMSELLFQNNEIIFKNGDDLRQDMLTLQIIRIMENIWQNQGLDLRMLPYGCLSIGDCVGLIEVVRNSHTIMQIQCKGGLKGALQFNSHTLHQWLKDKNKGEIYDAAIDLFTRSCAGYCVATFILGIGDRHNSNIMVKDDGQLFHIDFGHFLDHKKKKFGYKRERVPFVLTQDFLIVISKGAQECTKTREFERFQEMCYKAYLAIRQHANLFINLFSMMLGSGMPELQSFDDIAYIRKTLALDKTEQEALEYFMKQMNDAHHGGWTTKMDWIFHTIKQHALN
PI3Kα (p110/p85) kinase (wild type, "WT"), sequence (P27986 whole entry partner): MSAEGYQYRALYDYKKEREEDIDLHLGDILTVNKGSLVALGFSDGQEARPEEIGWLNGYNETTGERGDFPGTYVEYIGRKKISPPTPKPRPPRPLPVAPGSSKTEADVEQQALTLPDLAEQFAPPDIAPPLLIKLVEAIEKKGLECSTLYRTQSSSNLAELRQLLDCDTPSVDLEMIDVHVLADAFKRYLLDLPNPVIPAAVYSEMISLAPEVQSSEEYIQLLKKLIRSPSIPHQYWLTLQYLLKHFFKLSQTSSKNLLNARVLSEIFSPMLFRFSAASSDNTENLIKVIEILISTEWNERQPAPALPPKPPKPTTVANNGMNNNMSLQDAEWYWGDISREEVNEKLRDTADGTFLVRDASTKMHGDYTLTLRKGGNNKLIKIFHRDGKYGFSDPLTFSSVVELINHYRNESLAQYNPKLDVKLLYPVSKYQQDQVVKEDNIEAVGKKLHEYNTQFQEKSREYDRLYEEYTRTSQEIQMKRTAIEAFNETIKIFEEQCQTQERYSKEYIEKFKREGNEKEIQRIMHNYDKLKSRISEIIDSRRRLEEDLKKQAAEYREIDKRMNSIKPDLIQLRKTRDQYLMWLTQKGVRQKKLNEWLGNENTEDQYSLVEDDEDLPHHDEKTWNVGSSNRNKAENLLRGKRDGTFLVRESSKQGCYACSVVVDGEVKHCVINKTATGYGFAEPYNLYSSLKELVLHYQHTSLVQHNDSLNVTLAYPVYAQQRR

Row | Structure (SMILES) | pIC50 [1] | pIC50 [2] | Selectivity: SK-BR-3/T-47D (p-AKT) [2]
1 | Cc1cc(C(C)Nc2ccccc2C(=O)O)c2cc(-c3cnn(C)c3)n(C)c(=O)c2c1 (stereo not drawn) [Example 91, 2-((1-(2,7-dimethyl-3-(1-methyl-1H-pyrazol-4-yl)-1-oxo-1,2-dihydroisoquinolin-5-yl)ethyl)amino)benzoic acid] | 5.01 | 6.39 | 11.6
2 | Cc1cc(C(C)Nc2sc3ccccc3c2C(=O)O)c2cc(-c3ccccc3)n(C)c(=O)c2c1 (stereo not drawn) [Example 92, 2-((1-(2,7-dimethyl-1-oxo-3-phenyl-1,2-dihydroisoquinolin-5-yl)ethyl)amino)benzo[b]thiophene-3-carboxylic acid] | < 4.00 | 6.96 | >91
3 | Cc1cc(C(C)Nc2ccccc2C(=O)O)c2cc(-c3ccc(C#N)cc3)n(C)c(=O)c2c1 (stereo not drawn) [Example 4, 2-((1-(3-(4-cyanophenyl)-2,7-dimethyl-1-oxo-1,2-dihydroisoquinolin-5-yl)ethyl)amino)benzoic acid] | 5.41 | 6.84 | >69
